Assay results published in patent publication US20090170886A1 (Pfizer Inc, priority 2005, published 2009).
Like-named read-outs stand apart in the source and are kept apart here.

Target: T1, hAR (human androgen receptor, baculovirus/Sf9 generated extracts) (Homo sapiens, UniProt P10275)
T1 construct: made in house; host or cells: baculovirus/Sf9 insect cells (crude extract)
T1 sequence (P10275 1-920): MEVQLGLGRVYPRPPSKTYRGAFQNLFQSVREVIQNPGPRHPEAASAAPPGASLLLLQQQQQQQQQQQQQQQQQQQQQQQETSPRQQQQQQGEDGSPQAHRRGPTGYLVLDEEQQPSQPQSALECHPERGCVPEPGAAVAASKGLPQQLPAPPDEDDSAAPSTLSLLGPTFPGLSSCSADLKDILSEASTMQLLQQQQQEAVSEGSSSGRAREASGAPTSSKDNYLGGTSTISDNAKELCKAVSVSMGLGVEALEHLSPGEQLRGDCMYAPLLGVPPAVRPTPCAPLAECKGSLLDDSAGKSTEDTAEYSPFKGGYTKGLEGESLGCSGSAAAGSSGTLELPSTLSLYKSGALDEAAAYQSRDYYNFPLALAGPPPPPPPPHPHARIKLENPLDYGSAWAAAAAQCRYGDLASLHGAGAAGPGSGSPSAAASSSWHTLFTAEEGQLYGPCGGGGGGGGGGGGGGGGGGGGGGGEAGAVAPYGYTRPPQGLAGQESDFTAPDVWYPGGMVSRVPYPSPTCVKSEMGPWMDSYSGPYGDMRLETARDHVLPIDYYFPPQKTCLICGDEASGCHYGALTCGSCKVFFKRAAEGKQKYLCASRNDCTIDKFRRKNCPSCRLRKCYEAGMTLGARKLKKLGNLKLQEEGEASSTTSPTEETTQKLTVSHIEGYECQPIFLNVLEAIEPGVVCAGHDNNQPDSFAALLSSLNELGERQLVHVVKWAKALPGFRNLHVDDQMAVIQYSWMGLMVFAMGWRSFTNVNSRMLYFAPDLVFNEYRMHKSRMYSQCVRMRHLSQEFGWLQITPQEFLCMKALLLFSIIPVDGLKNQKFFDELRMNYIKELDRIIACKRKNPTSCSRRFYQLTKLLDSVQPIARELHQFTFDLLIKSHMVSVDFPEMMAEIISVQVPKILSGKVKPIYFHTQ
Test: AR Binding Assay (competitive binding with 3H-DHT tracer)
Settings: 1 nM 3H-DHT, one hour at 4° C., mean of multiple tests
How it was run: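 Compounds at decreasing concentrations were incubated with baculovirus/Sf9 hAR extract, hydroxylapatite and 1 nM ^3H-DHT for one hour at 4° C., then washed three times. The value is the compound concentration inhibiting half of maximum ^3H-DHT binding, reported as the mean of multiple tests.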

[1] = hAR extract, read-out: AR Binding IC50

| Compound | IC50 (AR Binding IC50, hAR extract) [nM] | IC50 [1] [nM] |
| --- | --- | --- |
| CC(Oc1ccc(C#N)c(C(F)(F)F)c1)c1ccccc1 (racemic) [Example 1, 4-(1-Phenyl-ethoxy)-2-trifluoromethyl-benzonitrile] | 10 | – |
| C=CCC(Oc1ccc(C#N)c(C(F)(F)F)c1)c1cccc(O)c1 (single isomer, unassigned; (-)) [Example 19, (−)4-{[1-(3-Hydroxyphenyl)but-3-enyl]oxy}-2-(trifluoromethyl)benzonitrile] | 185 | – |
| CCCC(Oc1ccc(C#N)c(C(F)(F)F)c1)c1cccc(O)c1 (racemic) [Example 14, 4-[1-(3-Hydroxyphenyl)butoxy]-2-(trifluoromethyl)benzonitrile] | 18 | – |
| CC(C)CC(Oc1ccc(C#N)c(C(F)(F)F)c1)c1cccnc1 (stereo not drawn) [Example 88, 4-(3-Methyl-1-pyridin-3-yl-butoxy)-2-trifluoromethyl-benzonitrile] | 218 | – |
| N#Cc1ccc(OCc2cccc(O)c2)cc1C(F)(F)F [Example 6, 4-[(3-Hydroxybenzyl)oxy]-2-(trifluoromethyl)benzonitrile] | 12 | – |
| CC(C)CC(Oc1ccc(C#N)c(C(F)(F)F)c1)c1cccc(O)c1 (single isomer, unassigned; (+)) [Example 21, (+)4-[1-(3-Hydroxyphenyl)-3-methylbutoxy]-2-(trifluoromethyl)benzonitrile] | 66 | – |
| CCC(Oc1ccc(C#N)c(C(F)(F)F)c1)c1ccccn1 (stereo not drawn) [Example 79, 4-(1-Pyridin^−2-yl-propoxy)-2-trifluoromethyl-benzonitrile] | 148 | – |
| Cc1ccc(C(CC(C)C)Oc2ccc(C#N)c(C(F)(F)F)c2)cn1 (stereo not drawn) [Example 89, 4-[3-Methyl-1-(6-methyl-pyridin-3-yl)-butoxy]-2-trifluoromethyl-benzonitrile] | 137 | – |
| CCCC(Oc1ccc(C#N)c(C(F)(F)F)c1)c1cccc(O)c1 (single isomer, unassigned; (+)) [Example 15, (+)4-[1-(3-Hydroxyphenyl)butoxy]-2-(trifluoromethyl)benzonitrile] | 20 | – |
| CC(Oc1ccc(C#N)c(C(F)(F)F)c1)c1cccc(O)c1 (single isomer, unassigned; (-)) [Example 9, (−)-4-[1-(3-Hydroxyphenyl)ethoxy]-2-(trifluoromethyl)benzonitrile] | 56 | – |
| CC(Oc1ccc(C#N)c(C(F)(F)F)c1)c1cncc(O)c1 (single isomer, unassigned; (+)) [Example 74, (+)4-[1-(5-Hydroxypyridin-3-yl)ethoxy]-2-(trifluoromethyl)benzonitrile] | – | 35 |
| COc1cccc(C(C)Oc2ccc(C#N)c(C(F)(F)F)c2)n1 (stereo not drawn) [Example 80, 4-[1-(6-Methoxy-pyridin-2-yl)-ethoxy]-2-trifluoromethyl-benzonitrile] | – | 120 |
